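Step 1: Grow cells in 96-well plates. Step 2: Expose to compound for 48 hours at 5 concentrations. Step 3: Interpolate endpoints linearly; if unreached, use highest concentration. TGI is the concentration that stops growth completely.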 Peptide text beside a SMILES is read from it. * marks the point of attachment. X26 = Clc1c(Cl)c(Cl)c(O*)c(Cl)c1Cl; Boc = CC(C)(C)OC(=O)*; OBn = c1ccc(CO*)cc1; Bn = c1ccc(C*)cc1
How the values were obtained:
Experiment in all cases: NCI tumour cell line growth inhibition, 48 h
[1] = tested on: HCT-116 colon
[2] = tested on: HL-60(TB) leukemia
[3] = tested on: M14 melanoma
[4] = tested on: MCF7 breast
[5] = tested on: MDA-MB-231 breast
[6] = tested on: NCI-H226 lung
[7] = tested on: NCI-H460 lung
[8] = tested on: RPMI-8226 leukemia
[9] = tested on: SNB-19 CNS
[10] = tested on: LOX IMVI melanoma

Row | Structure (SMILES) | TGI [1] [µM] | TGI [2] [µM] | TGI [3] [µM] | TGI [4] [µM] | TGI [5] [µM] | TGI [6] [µM] | TGI [7] [µM] | TGI [8] [µM] | TGI [9] [µM] | TGI [10] [µM]
1 | CC[N+]1(C)CCC(O)(c2ccc(C)cc2)C(C(=O)c2ccc(C)cc2)C1 (configuration not stated) | > 100 | > 100 | > 100 | 36.9 | 62.3 | > 100 | > 100 | 37.3 | > 100 | –
2 | CCN(CC)c1ccc(NC(=S)NN(C)C)cc1 | > 10 | > 10 | > 10 | > 10 | > 10 | > 10 | > 10 | > 10 | > 10 | > 10
3 | CCCCCCc1cc2cc(-c3csc(-c4ccc(OC)cc4)n3)c(=O)oc2cc1O | 20.1 | > 100 | 27.5 | 53.2 | 25.3 | 30.6 | 41 | > 100 | 36 | 30.4
4 | CCCCN1C(=O)CC2[C@@H]3CCc4cc(OC)ccc4C3CC[C@]2(C)C1=O (some centres not stated) | > 10 | > 10 | > 10 | > 10 | > 10 | > 10 | > 10 | > 10 | > 10 | > 10
5 | CC1(C)OC[C@@H](C[C@H](O)COCc2ccccc2)O1 | > 100 | > 100 | > 100 | > 100 | > 100 | > 100 | > 100 | > 100 | > 100 | > 100
6 | COc1ccc(C2=C(Cl)C(=O)O/C2=C\c2ccc(OC)c(Br)c2)cc1Cl | 53.1 | > 100 | > 100 | 46.9 | – | – | > 100 | > 100 | 80.6 | > 100
7 | N#Cc1nc(CCCN2C(=O)c3ccccc3C2=O)oc1N | > 100 | – | > 100 | > 100 | > 100 | > 100 | > 100 | > 100 | > 100 | > 100
8 | NC(Cc1[nH]nc2ccccc12)C(=O)O (configuration not stated) | > 100 | > 100 | > 100 | > 100 | > 100 | > 100 | > 100 | > 100 | > 100 | > 100
9 | Cc1nnc2n1-c1ccccc1N(Cc1ccccc1)CC2 | > 100 | 60 | > 100 | > 100 | > 100 | > 100 | > 100 | 58.3 | > 100 | > 100
10 | NCCN(CCN(C(=O)Nc1ccccc1)c1ccccc1)C(=O)Nc1ccccc1 | 33.5 | 74.8 | 53.4 | 46.6 | > 100 | 98.6 | 42.8 | > 100 | > 100 | 47.6
11 | Cc1cc(S(=O)(=O)Nc2n[nH]c(Nc3ccccc3)n2)c(SCC(=O)O)cc1Cl | > 100 | > 100 | > 100 | > 100 | > 100 | > 100 | > 100 | > 100 | > 100 | > 100
12 | Nc1nncc2[nH]cnc12 | > 100 | 42.9 | > 100 | > 31.6 | > 100 | > 100 | > 100 | > 56 | > 100 | > 100
13 | Cc1ccc(C(=O)Cc2nc3c([nH]c2=O)c(C)nn3-c2ccccc2)c(C)c1 | > 10 | > 10 | > 10 | > 10 | > 10 | – | – | > 10 | > 10 | > 10
14 | CCCCCCCCCCCCNC(=O)CCC(NC(=O)c1ccc(N(C)Cc2cnc3nc(N)nc(N)c3n2)cc1)C(=O)NCCCCCCCCCCCC (configuration not stated) | > 100 | 87.1 | > 100 | > 100 | > 100 | > 100 | – | > 100 | 72.1 | 30.7
15 | c1c(N2CCOCC2)ssc1=[N+]1CCOCC1 | > 100 | > 100 | > 100 | – | – | > 100 | > 100 | > 100 | > 100 | > 100
16 | CC(C)CC(NC(=O)C(CCC(=O)OCc1ccccc1)NC(=O)OC(C)(C)C)C(=O)NC(COCc1ccccc1)C(=O)NC(Cc1ccccc1)C(=O)Oc1c(Cl)c(Cl)c(Cl)c(Cl)c1Cl (configuration not stated) (Boc-E(OBn)LS(Bn)F-X26; configuration not given here) | 31.6 | – | 78 | 66.3 | 34.5 | – | 59.8 | 76.6 | 83 | > 100
17 | Cc1ccc(S(=O)(=O)c2c(O)c3ccc(O)c(C)c3oc2=O)cc1 | > 100 | > 100 | > 100 | > 100 | > 100 | > 100 | > 100 | > 100 | > 100 | –
18 | C#CCOCC12C=CC(O1)C1COC(=O)C12 (configuration not stated) | > 100 | > 100 | > 100 | – | > 100 | > 100 | > 100 | > 100 | > 100 | > 100
19 | O=C1/C(=C/c2ccncc2)C(n2cccc2)c2c(Br)sc(Br)c21 (configuration not stated) | 10.4 | 4.68 | – | 12.7 | 4.96 | – | 18.1 | 7.2 | 30.6 | 4.54
20 | CN(C)CCCNc1cc(O)c2c(c1O)C(=O)c1ccccc1C2=O | 18.4 | – | 19.5 | 35.9 | 27.6 | 35.2 | 19.4 | 29.8 | 21.8 | 24.8
21 | S=c1[nH]nc(Cn2c3ccc(Br)cc3c3nc4ccccc4nc32)n1C1CCCCC1 | 40.2 | – | > 100 | > 100 | > 75.2 | > 76.6 | > 100 | 59.4 | > 96.7 | 23
22 | COc1cccc(N2C(=O)CS(=O)(=O)C2c2cccc(Oc3ccccc3)c2)c1 (configuration not stated) | 24.7 | > 100 | 89.7 | 10.6 | > 100 | 76.7 | 31.1 | – | > 100 | 51.1
